# From patent publication US11242337B2, “Compounds useful for treating gastrointestinal tract disorders” (Ardelyx, Inc., priority 2017, dated 2022)
# Read-outs that look alike come from different tables or passages of the source.
# Assays:
# [1] = test system: human ileum monolayer culture; assay: Sustained inhibition of apical acid secretion in human organoid monolayer cell cultures (ileum); assay type: cell-based; conditions: Homo sapiens, 48 h; 1 μM apical, dosed day 6, apical media pH day 8, vs DMSO
# How it was run: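 Human ileum organoid-derived Transwell monolayers, differentiated with ENRA from day 3, received 1 μM compound apically on day 6 (DMSO vehicle, duplicate wells). Apical medium pH was measured by electrode on day 8 as a readout of sustained NHE3-mediated proton secretion inhibition.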
# [2] = test system: absorption of sodium from the intestinal lumen; assay: Inhibition of intestinal sodium absorption in mice; assay type: in vivo; conditions: CD-1 mice, 15 mg/kg oral gavage twice daily; for Fecal fluid content (Δ from vehicle): day 3, change from vehicle group mean; for response vs control in vivo at 15 mg/kg: Mus musculus, 72 h, day 3, normalized to dietary sodium intake
# How it was run: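 Male ~8-week CD-1 mice on chow with added 0.4% inorganic phosphorous, in metabolic cages after 3-day acclimation and 24-hr baseline collection. Urine sodium by ion chromatography, dried fecal sodium by MP-AES; day-3 24-hour excretion normalized to dietary sodium intake and expressed as % of vehicle mean; diarrhea and fecal fluid also recorded.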
# [3] = read-out: Fecal Na Excretion (% of vehicle)
# [4] = read-out: Urinary Na Excretion (% of vehicle)
SMILES,inhibition at 1 µM [1] [%],Fecal fluid content (Δ from vehicle) [2],"response vs control in vivo at 15 mg/kg [2, 3] [%]","response vs control in vivo at 15 mg/kg [2, 4] [%]"
"Cc1cc(S(=O)(=O)NCCOCCOCCNC(=O)NCCCCNC(=O)NCCOCCOCCNS(=O)(=O)c2ccc(O[C@H]3c4cc(Cl)cc(C)c4C[C@@H]3N3CCNCC3)c(C)c2)ccc1O[C@H]1c2cc(Cl)cc(C)c2C[C@@H]1N1CCNCC1 [Example 35, 3-[2-(2-[2-[(4-[[(1S,2S)-6-Chloro-4-methyl-2-(piperazin-1-yl)-2,3-dihydro-1H-inden-1-yl]oxy]-3-methylbenzene)sulfonamido]ethoxy]ethoxy)ethyl]-1-[4-([[2-(2-[2-[(4-[[(1S,2S)-6-chloro-4-methyl-2-(piperazin-1-yl)-2,3-dihydro-1H-inden-1-yl]oxy]-3-methylbenzene)sulfonamido]ethoxy]ethoxy)ethyl]carbamoyl]amino)butyl]urea; bis(trifluoroacetic acid)]",> 70,A (<5),150 to 200,> 70
"Cc1cc(Cl)cc2c1C[C@H](N1CCNCC1)[C@H]2Oc1ccc(S(=O)(=O)NCCOCCOCCNC(=O)NCCCCNC(=O)NCCOCCOCCNS(=O)(=O)c2ccc(O[C@H]3c4cc(Cl)cc(C)c4C[C@@H]3N3CCNCC3)c(F)c2)cc1F [Example 36, 3-[2-(2-[2-[(4-[[(1S,2S)-6-Chloro-4-methyl-2-(piperazin-1-yl)-2,3-dihydro-1H-inden-1-yl]oxy]-3-fluorobenzene)sulfonamido]ethoxy]ethoxy)ethyl]-1-[4-([[2-(2-[2-[(4-[[(1S,2S)-6-chloro-4-methyl-2-(piperazin-1-yl)-2,3-dihydro-1H-inden-1-yl]oxy]-3-fluorobenzene)sulfonamido]ethoxy]ethoxy)ethyl]carbamoyl]amino)butyl]urea; bis(trifluoroacetic acid)]",> 70,B (5-10),150 to 200,50 to 70
"N#Cc1cc(Cl)cc2c1C[C@H](N1CCNCC1)[C@H]2Oc1ccc(S(=O)(=O)NCCOCCOCCNC(=O)NCCCCNC(=O)NCCOCCOCCNS(=O)(=O)c2ccc(O[C@H]3c4cc(Cl)cc(C#N)c4C[C@@H]3N3CCNCC3)cc2)cc1 [Example 41, 3-[2-(2-[2-[(4-[[(1S,2S)-6-Chloro-4-cyano-2-(piperazin-1-yl)-2,3-dihydro-1H-inden-1-yl]oxy]benzene)sulfonamido]ethoxy]ethoxy)ethyl]-1-[4-([[2-(2-[2-[(4-[[(1S,2S)-6-chloro-4-cyano-2-(piperazin-1-yl)-2,3-dihydro-1H-inden-1-yl]oxy]benzene)sulfonamido]ethoxy]ethoxy)ethyl]carbamoyl]amino)butyl]urea; bis(trifluoroacetic acid)]",50 to 70,B (5-10),> 200,< 50
"Cc1cc(S(=O)(=O)NCCOCCOCCNC(=O)NCCCCNC(=O)NCCOCCOCCNS(=O)(=O)c2ccc(O[C@H]3c4cc(Cl)cc(C#N)c4C[C@@H]3N3CCNCC3)c(C)c2)ccc1O[C@H]1c2cc(Cl)cc(C#N)c2C[C@@H]1N1CCNCC1 [Example 42, 3-[2-(2-[2-[(4-[[(1S,2S)-6-Chloro-4-cyano-2-(piperazin-1-yl)-2,3-dihydro-1H-inden-1-yl]oxy]-3-methylbenzene)sulfonamido]ethoxy]ethoxy)ethyl]-1-[4-([[2-(2-[2-[(4-[[(1S,2S)-6-chloro-4-cyano-2-(piperazin-1-yl)-2,3-dihydro-1H-inden-1-yl]oxy]-3-methylbenzene)sulfonamido]ethoxy]ethoxy)ethyl]carbamoyl]amino)butyl]urea; bis(trifluoroacetic acid)]",> 70,B (5-10),150 to 200,< 50
"N#Cc1cc(Cl)cc2c1C[C@H](N1CCNCC1)[C@H]2Oc1ccc(S(=O)(=O)NCCOCCOCCNC(=O)NCCCCNC(=O)NCCOCCOCCNS(=O)(=O)c2ccc(O[C@H]3c4cc(Cl)cc(C#N)c4C[C@@H]3N3CCNCC3)c(F)c2)cc1F [Example 43, 3-[2-(2-[2-[(4-[[(1S,2S)-6-Chloro-4-cyano-2-(piperazin-1-yl)-2,3-dihydro-1H-inden-1-yl]oxy]-3-fluorobenzene)sulfonamido]ethoxy]ethoxy)ethyl]-1-[4-([[2-(2-[2-[(4-[[(1S,2S)-6-chloro-4-cyano-2-(piperazin-1-yl)-2,3-dihydro-1H-inden-1-yl]oxy]-3-fluorobenzene)sulfonamido]ethoxy]ethoxy)ethyl]carbamoyl]amino)butyl]urea; bis(trifluoroacetic acid)]",50 to 70,C (>10),> 200,< 50
"Cc1cc(S(=O)(=O)N2CC[C@@H](COCCOCCNC(=O)NCCCCNC(=O)NCCOCCOC[C@@H]3CCN(S(=O)(=O)c4ccc(O[C@H]5c6cc(Cl)cc(Cl)c6C[C@@H]5N(C)C)c(C)c4)C3)C2)ccc1O[C@H]1c2cc(Cl)cc(Cl)c2C[C@@H]1N(C)C [Example 45, 3-[2-(2-[[(3R)-1-[(4-[[(1S,2S)-4,6-Dichloro-2-(dimethylamino)-2,3-dihydro-1H-inden-1-yl]oxy]-3-methylbenzene)sulfonyl]pyrrolidin-3-yl]methoxy]ethoxy)ethyl]-1-[4-([[2-(2[[(3R)-1-[(4-[[(1S,2S)-4,6-dichloro-2-(dimethylamino)-2,3-dihydro-1H-inden-1-yl]oxy]-3-methylbenzene)sulfonyl]pyrrolidin-3-yl]methoxy]ethoxy)ethyl]carbamoyl]amino)butyl]urea; bis(trifluoroacetic acid)]",50 to 70,A (<5),< 150,> 70
"Cc1cc(S(=O)(=O)N2CC[C@@H](COc3ccnc(CNC(=O)NCCCCNC(=O)NCc4cc(OC[C@@H]5CCN(S(=O)(=O)c6ccc(O[C@H]7c8cc(Cl)cc(Cl)c8C[C@@H]7N(C)C)c(C)c6)C5)ccn4)c3)C2)ccc1O[C@H]1c2cc(Cl)cc(Cl)c2C[C@@H]1N(C)C [Example 49, 3-[(4-[[(3R)-1-[(4-[[(1S,2S)-4,6-Dichloro-2-(dimethylamino)-2,3-dihydro-1H-inden-1-yl]oxy]-3-methylbenzene)sulfonyl]pyrrolidin-3-yl]methoxy]pyridin-2-yl)methyl]-1-[4-([[(4-[[(3R)-1-[(4-[[(1S,2S)-4,6-dichloro-2-(dimethylamino)-2,3-dihydro-1H-inden-1-yl]oxy]-3-methylbenzene)sulfonyl]pyrrolidin-3-yl]methoxy]pyridin-2-yl)methyl]carbamoyl]amino)butyl]urea]",> 70,A (<5),< 150,> 70
"Cc1cc(S(=O)(=O)N[C@H]2CCN(CCOCCNC(=O)NCCCCNC(=O)NCCOCCN3CC[C@H](NS(=O)(=O)c4ccc(O[C@H]5c6cc(Cl)cc(Cl)c6C[C@@H]5N(C)C)c(C)c4)C3)C2)ccc1O[C@H]1c2cc(Cl)cc(Cl)c2C[C@@H]1N(C)C [Example 52, 3-(2-[2-[(3S)-3-[(4-[[(1S,2S)-4,6-Dichloro-2-(dimethylamino)-2,3-dihydro-1H-inden-1-yl]oxy]-3-methylbenzene)sulfonamido]pyrrolidin-1-yl]ethoxy]ethyl)-1-(4-[[(2-[2-[(3S)-3-[(4-[[(1S,2S)-4,6-dichloro-2-(dimethylamino)-2,3-dihydro-1H-inden-1-yl]oxy]-3-methylbenzene)sulfonamido]pyrrolidin-1-yl]ethoxy]ethyl)carbamoyl]amino]butyl)urea]",> 70,B (5-10),> 200,50 to 70
"Cc1cc(S(=O)(=O)N[C@@H]2CCN(CCOCCNC(=O)NCCCCNC(=O)NCCOCCN3CC[C@@H](NS(=O)(=O)c4ccc(O[C@H]5c6cc(Cl)cc(C#N)c6C[C@@H]5N(C)C)c(C)c4)C3)C2)ccc1O[C@H]1c2cc(Cl)cc(C#N)c2C[C@@H]1N(C)C [Example 55, 3-(2-[2-[(3R)-3-[(4-[[(1S,2S)-6-Chloro-4-cyano-2-(dimethylamino)-2,3-dihydro-1H-inden-1-yl]oxy]-3-methylbenzene)sulfonamido]pyrrolidin-1-yl]ethoxy]ethyl)-1-(4-[[(2-[2-[(3R)-3-[(4-[[(1S,2S)-6-chloro-4-cyano-2-(dimethylamino)-2,3-dihydro-1H-inden-1-yl]oxy]-3-methylbenzene)sulfonamido]pyrrolidin-1-yl]ethoxy]ethyl)carbamoyl]amino]butyl)urea]",< 50,B (5-10),150 to 200,> 70
